In patent US11519834B2, “In vitro intestinal drug disposition device” (Enphasys AB, priority 2017, dated 2022):
Where two headings read alike, the source gives them in different places.

Columns and labels:
[1] = compared with micronized (ball-milled) danazol, FIG. 7
Caco-2 cells [2] = experiment: Permeation across Caco-2 monolayers in μFlux; assay type: in vitro ADME, human; conditions: Caco-2 monolayer, 0.78 cm^2, 10 μM lucifer yellow
Method: HBSS containing 4% bovine albumin serum was used in the receiver compartment to ensure sink conditions. […] Donor and receiver compartments were kept at 37° C. and typically contained 15 ml of buffer. Caco-2 cells were grown in Transwell plates and placed between the compartments resulting in a surface of 0.78 cm^2. Magnetic stirring was used for mixing in both the donor and receiver compartment. The μDISS profiler allowed in situ concentration monitoring with fiber optic probes.

Caco-2 cells [3] = system: Caco-2 cells
Method: (§1) The buffer was spiked with 10 μM lucifer yellow, which was used as a paracellular marker to check monolayer integrity. HBSS containing 4% bovine albumin serum was used in the receiver compartment to ensure sink conditions.
Caco-2 cells were grown on Transwell inserts (diameter […]) and mounted in the device resulting in a surface area of 28.27 cm^2. The receiver compartment contained 180 ml and the donor 60 ml. A magnetic stirrer was used to mix the buffer in the receiver compartment and a stirrer propeller to mix the buffer in the donor compartment.

Caco-2 cells [4] = experiment: Permeation across Caco-2 monolayers in 12-well Transwell plate; assay type: in vitro ADME, human; conditions: Caco-2 monolayer, 1.12 cm^2, 10 μM lucifer yellow
Method: as §1
Caco-2 cells were grown on inserts in 12-well Transwell plates (surface area 1.12 cm^2). Transwell plates are typically used for in vitro absorption studies. The experiment was performed at 37° C. at 500 rpm with 400 μl of buffer at the donor and 1.2 ml of buffer at the receiver side.

Compound | absorption [1] | Lucifer yellow Papp (Caco-2 cells [2]) [×10⁻⁶ cm/s] | Lucifer yellow Papp (Caco-2 cells [3]) [×10⁻⁶ cm/s] | Lucifer yellow Papp (Caco-2 cells [4]) [×10⁻⁶ cm/s]
C#C[C@]1(O)CC[C@H]2[C@@H]3CCC4=Cc5oncc5C[C@]4(C)[C@H]3CC[C@@]21C [Unprocessed crystalline danazol, danazol] | much lower absorption | – | – | –
lucifer yellow | – | 39.37 | 2.19 | 1
